# According to patent US20250186475A1, “METHODS OF TREATING MEDICAL CONDITIONS USING ISLATRAVIR OR A RELATED COMPOUND” (ROME Therapeutics, Inc., priority 2022, published 2025):
# Assays:
# Assay type in all cases: cell-based
# [1] = target: T1, LINE1 reverse transcriptase (Homo sapiens, UniProt O00370); assay: Transient artificial-intron Cis LINE1 reporter assay; details: HEK 293 cells, FLuc/RLuc ratio, read-out: IC50 for inhibition of FLuc luminescence
# T1 construct: expressed in transfected cells
# Description: Intron-disrupted Firefly luciferase (FLuc) expression cassettes were generated as described by Xie, Y. et al. “Characterization of L1 retrotransposition with high-throughput dual-luciferase assays,” Nucleic Acid Res. (2011) Vol. 39, No. 3, e16. In addition, the plasmid contained an intact Renilla luciferase (RLuc) expression cassette on the vector backbone, in order to normalize transfection efficiency and measure potential cell toxicity.
# HEK 293 cells were seeded in 96-well plates at 1,000 cells/well in 55 μL and grown for 24 hours. Cells were transfected with FuGeneHD (Promega) following the manufacturer's protocol. Each well received 0.133 ng plasmid, 0.4 μL FuGeneHD reagent, and 4.5 μL GlutaMAX-I-supplemented Opti-MEM I reduced-serum medium (Invitrogen). Cells were simultaneously treated with test compound serially diluted starting at 100 μM in a 3-fold dilution dose response.
# Luminescence was measured using the Dual-Glo Luciferase Assay System (Promega) following the manufacturer's instructions. The ratio between FLuc and RLuc gene expression was used to report LINE1 activity.
# [2] = target: T1, LINE1 reverse transcriptase; assay: Stable artificial-intron Cis LINE1 reporter assay (HeLa Tet-On 3G); details: HeLa L1 reporter cells, doxycycline induced, 72 h; read-out: IC50 for inhibition of FLuc luminescence
# Excerpt: A stable HeLa Tet-On 3G (Takara, cat no 631183) cell line expressing a bi-directional inducible LINE1 construct was generated as described in Xie, Y. et al. “Cell division promotes efficient retrotransposition in a stable L1 reporter cell line,” Mobile DNA (2013) 4:10. Single cell clones were screened for high Luciferase expression and the highest expression Firefly expressing clone was chosen for compound testing.
# Test compound was serially diluted in DMSO and spotted in 96-well plates. Subsequently the HeLa L1 artificial-intron reporter cells were plated into the compound-containing wells (8,000 cells/well), and the cells were induced for reporter expression with doxycycline (Sigma cat no D9891) at a final concentration of 500 ng/mL. Luminescence was measured 72 h after plating using the Dual-Glo Luciferase Assay System (Promega cat no E2940) following the manufacturer's instructions. The Firefly Luciferase activity was used to report LINE1 activity.
# SK-OV-3 cells = assay: Cancer cell viability assay with 3D cell colonies (CellTiter-Glo), SK-OV-3; details: Homo sapiens, SK-OV-3, 168 h; 3D tumorsphere growth, 7 days
# Description: (§1) Ovarian cancer cell line SK-OV-3 cells were cultured in McCoy's 5a media containing 10% FBS. Ovarian cancer cell line OVCAR-8 cells were cultured in RPMI media containing 10% FBS. Additional cancer cell lines were cultured in the following media: • Ovarian cancer SW756 cells—L-15 (100% air)+10% FBS • Esophageal cancer TE-1 cells—RPMI-1640+10% FBS • Esophageal cancer KYSE-410 cells—RPMI-1640+5˜10% FBS • Esophageal cancer KYSE-70 cells—RPMI-1640+10% h.i.FBS. • Pharyngeal cancer FaDu cells—MEM+0.01 mM NEAA+10% FBS
# (§2) Cell colony formation was tested using a 3D methylcellulose-based CellTiter-Glo (CTG) viability assay (Cat. No: G7573, Promega). Briefly, cells were inoculated into 96-well plates (at 1,500 cells per well) into a solution of 0.65% methylcellulose in growth media and incubated overnight at 37° C. in 5% CO2. The next day, serially diluted test compound (islatravir) or positive control (cisplatin, Cat. No. 6J015A89, Qilu Pharma) were added at the indicated concentrations, and the cells were incubated for 7 days. On day seven, 100 μL of CTG reagent was added, and the plates were incubated at room temperature for 20 min. Luminescence was read on an Envision Multi Label Reader according to manufacturer's instructions. IC50 values were determined using the following calculation: […]
# SW756 cells = assay: Cancer cell viability assay with 3D cell colonies (CellTiter-Glo), SW756; details: Homo sapiens, SW756, 168 h, 7 days
# Description: as §1, §2
# KYSE-410 cells = assay: Cancer cell viability assay with 3D cell colonies (CellTiter-Glo), KYSE-410; details: Homo sapiens, KYSE-410, 168 h, 7 days
# Description: as §1, §2
# [3] = tested on: IFN-β production in PBMCs; assay: Decitabine-stimulated human PBMC assay; details: PBMCs with anti-CD3/anti-CD28 and 10 μM decitabine, 5 days
# Description: EasySep buffer (32 mL, Stem Cell, cat. #20144) was used to dilute 8 mL of LRSC buffy coat (from fresh Leukopak) with gentle mixing. The diluted buffy coat (20 mL) was transferred into each of two SepMate 50 tubes, and the tubes were filled with 15 mL of Lyphoprep (Stem Cell, ct. #07851) density gradient. The SepMate tubes were then centrifuged at […] for 10 minutes at room temperature with the brake on. The top layer of supernatant was collected in SepMate tubes by quickly pouring it into a new 50 mL conical tube. The PBMCs were washed with EasySep buffer x2 by centrifuging at 300G for 5 minutes. The cells were resuspended in 30 mL of EasySep and centrifuged at 100G for 5 minutes with the brake off, and the platelets were removed. The cells were then resuspended in 6 mL of 1×RBC lysis buffer (InvitroGen) and incubated at 37° C. for 5 minutes. Then, 25 mL of EasySep buffer was mixed into the tube and it was centrifuged at 300G for 5 minutes. The cells were resuspended in 10 mL of EasySep buffer and the cells were then counted with Cellometer (AO/PI). The PBMCs were resuspended in RPMI1640 (ThermoFisher)+10% FBS (HyClone)+p/s at 3×10^6/mL. The PBMCs (100 μL, 300 k PBMCs) were then seeded in a 96-well flat bottom microplate (Corning) that had been precoated with 100 μL of anti-CD3 antibody (10 μg/mL in PBS, Biolegend) or PBS at 4° C., one day before the assay was commenced. […]
# T1 sequence (O00370 whole entry, looked up): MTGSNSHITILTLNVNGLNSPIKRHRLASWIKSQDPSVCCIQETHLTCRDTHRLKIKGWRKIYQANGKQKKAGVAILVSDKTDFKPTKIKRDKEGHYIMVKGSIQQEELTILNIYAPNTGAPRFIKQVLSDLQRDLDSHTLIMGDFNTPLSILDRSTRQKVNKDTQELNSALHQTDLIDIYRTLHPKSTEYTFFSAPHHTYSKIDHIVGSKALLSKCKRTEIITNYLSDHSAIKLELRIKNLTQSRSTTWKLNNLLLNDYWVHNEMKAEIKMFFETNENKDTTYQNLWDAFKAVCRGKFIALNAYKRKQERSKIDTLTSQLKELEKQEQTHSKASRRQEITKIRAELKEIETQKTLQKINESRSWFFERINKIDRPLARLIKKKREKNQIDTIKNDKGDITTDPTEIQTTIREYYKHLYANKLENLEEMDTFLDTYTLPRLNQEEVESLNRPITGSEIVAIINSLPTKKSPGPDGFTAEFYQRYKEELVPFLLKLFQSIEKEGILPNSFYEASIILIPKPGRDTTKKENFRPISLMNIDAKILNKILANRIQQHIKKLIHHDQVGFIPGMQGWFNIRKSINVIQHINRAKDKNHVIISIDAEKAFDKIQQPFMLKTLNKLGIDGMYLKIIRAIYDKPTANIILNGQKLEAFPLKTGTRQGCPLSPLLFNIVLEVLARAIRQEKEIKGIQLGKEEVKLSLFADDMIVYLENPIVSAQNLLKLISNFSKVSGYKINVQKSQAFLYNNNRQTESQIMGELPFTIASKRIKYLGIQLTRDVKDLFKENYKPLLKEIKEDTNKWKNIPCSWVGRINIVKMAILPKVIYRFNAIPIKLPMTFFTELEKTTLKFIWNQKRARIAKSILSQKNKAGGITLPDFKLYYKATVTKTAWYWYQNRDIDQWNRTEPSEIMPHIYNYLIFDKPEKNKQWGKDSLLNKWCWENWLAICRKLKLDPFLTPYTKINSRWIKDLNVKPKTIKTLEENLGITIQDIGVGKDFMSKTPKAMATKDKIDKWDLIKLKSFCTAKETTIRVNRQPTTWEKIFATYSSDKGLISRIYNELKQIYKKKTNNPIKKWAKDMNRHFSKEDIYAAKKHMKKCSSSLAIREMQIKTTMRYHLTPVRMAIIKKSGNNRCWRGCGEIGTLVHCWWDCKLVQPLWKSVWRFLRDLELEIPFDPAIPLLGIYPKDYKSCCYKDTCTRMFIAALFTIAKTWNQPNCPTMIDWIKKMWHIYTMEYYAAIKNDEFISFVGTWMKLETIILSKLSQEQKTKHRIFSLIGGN
smiles,measurement,setting,value
"C#C[C@]1(CO)O[C@@H](n2cnc3c(N)nc(F)nc32)C[C@@H]1O [Islatravir, (2R,3S,5R)-5-(6-amino-2-fluoro-9H-purin-9-yl)-2-ethynyl-2-(hydroxymethyl)tetrahydrofuran-3-ol]",IC50,[1],0.02 µM
same,IC50,[2],0.00069 µM
same,IC50,SK-OV-3 cells,6.54 µM
same,IC50,SW756 cells,> 30 µM
same,IC50,KYSE-410 cells,> 30 µM
same,production of IFN-β,[3],activated production of IFN-β
